Assay results taken from article PMC5705984, “Membrane-Active Properties of an Amphitropic Peptide from the CyaA Toxin Translocation Region” (Toxins, 2017).
Entries after “also recorded” stand apart in the source; their conditions may differ.

Experiment: Peptide partition from solution to membrane followed by tryptophan intrinsic fluorescence titration
Type: physicochemical
Conditions: for ΔG (free energy of membrane partition): ΔG=−RTln(KX); for ability to interact with / partition into membranes: tryptophan fluorescence and CD
Method: Small unilamellar vesicles (SUVs) were prepared at a lipid concentration of 10 mM from POPC and POPG at a molar ratio of 10:0 or 8:2 or from DOPC, DOPE, DOPG, Chol at molar ratio 10:0:0:0, 8:0:2:0, 7:3:0:0, 7:0:0:3, 6:3:0:1, and 4:3:2:1 in buffer A, as previously described. Briefly, SUVs were prepared by reverse-phase evaporation and passed through polycarbonate filters 0.8-, 0.4-, and 0.2-μm (Merck Millipore, Darmstadt, Germany). Vesicles were sonicated using a sonicator tip and their hydrodynamic diameters, dispersity, and charge were checked by dynamic light scattering (DLS) and electrophoretic mobility using a NanoZS instrument (Malvern Instruments, Orsay, France).
Fluorescence titrations were performed with a FP-8200 Jasco spectrofluorimeter, equipped with a Peltier-thermostated ETC-272T (25 °C). A bandwidth of 5 nm was used for both excitation and emission beams. Fluorescence experiments were carried out in a 109.004F-QS cuvette (Hellma, France) with constant stirring. Fluorescence emission was recorded between 300 and 400 nm at a scan rate of 200 nm/min, with an excitation wavelength of 280 nm. Fluorescence emission spectra were corrected for SUV light scattering. Maximum emission wavelength (λmax) and fluorescence intensity ratio at 330 nm over 370 nm (P454-derived peptides) or at 340 nm over 380 nm (CyaA-derived peptides) were used to report peptide-membrane interaction and to measure the partition coefficient KX.
The partition coefficient KX is defined as the ratio of protein concentrations in the lipid and in buffer phases. It is expressed as follows:
KX=PL/PW·[W]/[L] , providing PW/PL=[W]/KX[L] , where PW is the concentration of peptide in solution, PL the concentration of peptides partitioning into lipid membrane, [W] represents the concentration of water, and [L] the lipid concentration.
The fraction of peptide partitioned into the membrane phase, fPL, is equal to: fPL=PL/PT=PL/PL+PW=1/(PW/PL)+1=1/([W]/KX[L])+1
The partition coefficient is related to the apparent dissociation constant as follows: KX * KD = [W] with KD * PL = PW * [L]. The equation fPL is fitted to the experimental data using the KaleidaGraph software, providing KX. The free energy corresponding to the transfer of the peptide from the aqueous phase to the lipid phase is given by the equation ΔG=−RTln(KX) , where ΔG is the free energy in kcal/mol, R the gas constant (R = 1.98 × 10^−3 kcal/mol/K), and T the temperature in Kelvin.

[1] = SUVs DOPC/DOPE/DOPG/Chol 4:3:2:1, Trp fluorescence titration (exc. 280 nm, ratio 340/380 nm), 20 mM HEPES, 150 mM NaCl, pH 7.4, 25 °C
[2] = SUVs DOPC/DOPE/DOPG/Chol 4:3:2:1
[3] = SUVs DOPC/DOPE/DOPG/Chol 4:3:2:1, pH 7.4, 25 °C
[4] = SUVs DOPC/DOPG 8:2, Trp fluorescence titration (exc. 280 nm, ratio 330/370 nm), 20 mM HEPES, 150 mM NaCl, pH 7.4, 25 °C, S.D. within ±5%
[5] = SUVs DOPC/DOPG 8:2, pH 7.4, 25 °C, S.D. ±0.1 kcal/mol
[6] = SUVs DOPC, Trp fluorescence titration (exc. 280 nm, ratio 330/370 nm), 20 mM HEPES, 150 mM NaCl, pH 7.4, 25 °C, S.D. within ±5%
[7] = SUVs DOPC, pH 7.4, 25 °C, S.D. ±0.1 kcal/mol
[8] = SUVs POPC/POPG 8:2, Trp fluorescence titration (exc. 280 nm, ratio 330/370 nm), 20 mM HEPES, 150 mM NaCl, pH 7.4, 25 °C, S.D. within ±5%
[9] = SUVs POPC/POPG 8:2, pH 7.4, 25 °C, S.D. ±0.1 kcal/mol
[10] = SUVs POPC, Trp fluorescence titration (exc. 280 nm, ratio 330/370 nm), 20 mM HEPES, 150 mM NaCl, pH 7.4, 25 °C, S.D. within ±5%
[11] = SUVs POPC, pH 7.4, 25 °C, S.D. ±0.1 kcal/mol

CC[C@H](C)[C@H](NC(=O)[C@H](C)NC(=O)[C@H](Cc1c[nH]cn1)NC(=O)[C@@H](NC(=O)[C@H](CC(C)C)NC(=O)[C@H](CCCNC(=N)N)NC(=O)[C@H](CCC(N)=O)NC(=O)[C@H](C)NC(=O)[C@H](C)NC(=O)[C@H](C)NC(=O)[C@@H](NC(=O)[C@H](C)NC(=O)[C@H](CCC(N)=O)NC(=O)[C@H](C)NC(=O)CNC(=O)[C@H](CCC(N)=O)NC(=O)[C@H](CC(C)C)NC(=O)[C@H](C)NC(=O)[C@H](CCCNC(=N)N)NC(=O)[C@H](CCC(N)=O)NC(=O)CNC(=O)[C@H](Cc1c[nH]c2ccccc12)NC(=O)[C@H](Cc1c[nH]cn1)NC(=O)[C@H](C)NC(=O)[C@H](CO)NC(=O)[C@H](C)NC(C)=O)C(C)C)C(C)C)C(=O)N[C@@H](C)C(=O)N[C@@H](CC(C)C)C(=O)N[C@@H](CCSC)C(=O)N[C@H](C(=O)N[C@@H](CCC(N)=O)C(N)=O)[C@@H](C)O [Peptide P454]
membrane partition on addition of both POPE and cholesterol to POPC (POPC with POPE and cholesterol, data not shown): totally abolishes the partition
partition coefficient KX (SUVs DOPC/Chol 7:3, Trp fluorescence titration, pH 7.4, 25 °C, S.D. within ±5%): 60 000
ΔG (free energy of membrane partition) (SUVs DOPC/Chol 7:3, pH 7.4, 25 °C): -6.5 kcal/mol
partition coefficient KX (SUVs DOPC/DOPE 7:3, Trp fluorescence titration, pH 7.4, 25 °C, S.D. within ±5%): 80 000
ΔG (free energy of membrane partition) (SUVs DOPC/DOPE 7:3, pH 7.4, 25 °C): -6.7 kcal/mol
partition coefficient KX (SUVs DOPC/DOPE/Chol 6:3:1, Trp fluorescence titration, pH 7.4, 25 °C, S.D. within ±5%): 40 000
ΔG (free energy of membrane partition) (SUVs DOPC/DOPE/Chol 6:3:1, pH 7.4, 25 °C): -6.3 kcal/mol
partition coefficient KX [1]: 300 000
ability to interact with / partition into membranes [2]: able to interact with membranes
ΔG (free energy of membrane partition) [3]: -7.4 kcal/mol
partition coefficient KX [4]: 1 200 000
ΔG (free energy of membrane partition) [5]: -8.3 kcal/mol
partition coefficient KX [6]: 505 000
ΔG (free energy of membrane partition) [7]: -7.8 kcal/mol
partition coefficient KX [8]: 790 000
ΔG (free energy of membrane partition) [9]: -8 kcal/mol
partition coefficient KX [10]: 150 000
ΔG (free energy of membrane partition) [11]: -7 kcal/mol
ΔΔG, net contribution of arginine residues to partition compared to the lysine residues of R12K (native P454 vs R12K, all membrane lipid compositions tested): ~0.5 ± 0.2 kcal/mol

Ac-EASSAVAETVSGFFRGW-NH2 [Peptide P509]
partition coefficient KX [1]: 80 000
ability to interact with / partition into membranes [2]: able to interact with membranes
ΔG (free energy of membrane partition) [3]: -6.7 kcal/mol

Ac-ASAHWGQKALQGAQAVAAAQKLVHAIALMTQ-NH2 [P454 R12K]
partition coefficient KX [4]: 750 000
ΔG (free energy of membrane partition) [5]: -8 kcal/mol
partition coefficient KX [6]: 265 000
ΔG (free energy of membrane partition) [7]: -7.4 kcal/mol
partition coefficient KX [8]: 215 000
ΔG (free energy of membrane partition) [9]: -7.3 kcal/mol
partition coefficient KX [10]: 60 000
ΔG (free energy of membrane partition) [11]: -6.5 kcal/mol

CC[C@H](C)[C@H](NC(=O)[C@H](CCCCN)NC(=O)[C@H](Cc1c[nH]c2ccccc12)NC(=O)[C@H](CC(C)C)NC(=O)[C@H](CC(C)C)NC(=O)[C@H](CC(=O)O)NC(=O)[C@@H](NC(=O)[C@H](CCCNC(=N)N)NC(=O)[C@H](CCC(=O)O)NC(=O)[C@H](CCCNC(=N)N)NC(=O)[C@H](CC(=O)O)NC(=O)[C@H](CC(C)C)NC(C)=O)[C@@H](C)CC)C(=O)N[C@@H](C)C(=O)N[C@@H](CCCNC(=N)N)C(=O)N[C@@H](C)C(=O)NCC(=O)N[C@@H](C)C(=O)N[C@@H](CCCNC(=N)N)C(=O)N[C@@H](CO)C(=O)N[C@@H](C)C(=O)N[C@H](C(=O)NCC(N)=O)C(C)C [Peptide P233]
partition coefficient KX [1]: 60 000
ability to interact with / partition into membranes [2]: able to interact with membranes
ΔG (free energy of membrane partition) [3]: -6.5 kcal/mol

Ac-QEAASLSAAVFGLGEASSAVAETVSGFFRGW-NH2 [Peptide P495]
partition coefficient KX [1]: 130 000
ability to interact with / partition into membranes [2]: able to interact with membranes
ΔG (free energy of membrane partition) [3]: -6.9 kcal/mol

Ac-IIEKLANDYARKIDELGW-NH2 [Peptide P717]
partition coefficient KX [1]: 60 000
ability to interact with / partition into membranes [2]: able to interact with membranes
ΔG (free energy of membrane partition) [3]: -6.5 kcal/mol

Ac-AYFEKNLQARHEQLANSDGLRKMLADLQAGWNASS-NH2 [Peptide P737]
partition coefficient KX [1]: 20 000
ability to interact with / partition into membranes [2]: able to interact with membranes
ΔG (free energy of membrane partition) [3]: -5.8 kcal/mol

Ac-LVQQSHYADQLDKLAQESSAYGW-NH2 [Peptide P626]
ability to interact with / partition into membranes [2]: no detectable change of tryptophan fluorescence or CD signature; also recorded: do not

Ac-TTEISKSALELAAITGNW-NH2 [Peptide P777]
ability to interact with / partition into membranes [2]: no detectable change of tryptophan fluorescence or CD signature; also recorded: do not

Ac-ASAHWGQAALQGAQAVAAAQALVHAIALMTQ-NH2 [P454 R12A]
partition coefficient KX [4]: 795 000
ΔG (free energy of membrane partition) [5]: -8 kcal/mol
partition coefficient KX [6]: 610 000
ΔG (free energy of membrane partition) [7]: -7.9 kcal/mol
partition coefficient KX [8]: 275 000
ΔG (free energy of membrane partition) [9]: -7.4 kcal/mol
partition coefficient KX [10]: 195 000
ΔG (free energy of membrane partition) [11]: -7.2 kcal/mol

Ac-ASAHWGQQALQGAQAVAAAQRLVHAIALMTQ-NH2 [P454 R1Q]
partition coefficient KX [4]: 670 000
ΔG (free energy of membrane partition) [5]: -7.9 kcal/mol
partition coefficient KX [6]: 340 000
ΔG (free energy of membrane partition) [7]: -7.5 kcal/mol
partition coefficient KX [8]: 190 000
ΔG (free energy of membrane partition) [9]: -7.2 kcal/mol
partition coefficient KX [10]: 75 000
ΔG (free energy of membrane partition) [11]: -6.6 kcal/mol

Ac-ASAHWGQQALQGAQAVAAAQQLVHAIALMTQ-NH2 [P454 R12Q]
partition coefficient KX [4]: 310 000
ΔG (free energy of membrane partition) [5]: -7.5 kcal/mol
partition coefficient KX [6]: 195 000
ΔG (free energy of membrane partition) [7]: -7.2 kcal/mol
partition coefficient KX [8]: 70 000
ΔG (free energy of membrane partition) [9]: -6.6 kcal/mol
partition coefficient KX [10]: 35 000
ΔG (free energy of membrane partition) [11]: -6.2 kcal/mol

Ac-IPAAVLDGIKAVAKEKNW-NH2 [Peptide P19]
ability to interact with / partition into membranes [2]: no detectable change of tryptophan fluorescence or CD signature; also recorded: do not

Ac-ASAHWGQRALQGAQAVAAAQQLVHAIALMTQ-NH2 [P454 R2Q]
partition coefficient KX [4]: 655 000
ΔG (free energy of membrane partition) [5]: -7.9 kcal/mol
partition coefficient KX [6]: 260 000
ΔG (free energy of membrane partition) [7]: -7.4 kcal/mol
partition coefficient KX [8]: 150 000
ΔG (free energy of membrane partition) [9]: -7 kcal/mol
partition coefficient KX [10]: 90 000
ΔG (free energy of membrane partition) [11]: -6.7 kcal/mol

Ac-APEVIARADNDVNSSLAHGW-NH2 [Peptide P89]
ability to interact with / partition into membranes [2]: no detectable change of tryptophan fluorescence or CD signature; also recorded: do not

Ac-ASAHWGQEALQGAQAVAAAQELVHAIALMTQ-NH2 [P454 R12E]
partition coefficient KX [4]: 70 000
ΔG (free energy of membrane partition) [5]: -6.6 kcal/mol
partition coefficient KX [6]: 85 000
ΔG (free energy of membrane partition) [7]: -6.7 kcal/mol
partition coefficient KX [8]: 30 000
ΔG (free energy of membrane partition) [9]: -6.1 kcal/mol
partition coefficient KX [10]: 7 000
ΔG (free energy of membrane partition) [11]: -5.2 kcal/mol
